We go through 15 molecules from US5550243A, “B preparation of 2- and 3- azido derivates of 1,5-iminosugars” (priority 1995, dated 1996).

Where two headings read alike, the source gives them in different places.

The subject of experiment [1] is visna virus. Briefly: microbe, parasite or virus in culture. The experiment is classed as cell-based. The following applies: for inhibition at 100 µM / inhibition at 1000 µM: Visna-maedi virus.
In experiment [2] the test system is α-glucosidase. Kind of experiment: Inhibition of α-glucosidase in conventional enzyme assay. It is filed as biochemical. The note with it: 1 mM concentration.
The subject of experiment [3] is β-glucosidase. Kind of experiment: Inhibition of β-glucosidase in conventional enzyme assay. It is filed as biochemical. The note with it: 1 mM concentration.
Setting [4] is: read-out: Visna % Plaque Redn (Conc).
[5] abbreviates: read-out: Visna % Plague Redn (Conc).

As to `[N-]=[N+]=N[C@H]1CN[C@H](CO)[C@@H](O)[C@@H]1O` [Compound 12, 2-azido-1,2,5-trideoxy-1,5-imino-D-glucitol], in experiment [1] (setting [4]), the inhibition at 100 µM came out at 76%.
In the case of `CCCCN1CC(N=[N+]=[N-])C(O)C(O)C1CO` [Compound 13, 2-azido-1,5-(butylimino)-1,2,5-trideoxy-D-glucitol], the inhibition at 100 µM in experiment [1] (setting [5]) and in experiment [1] (setting [4]) was 78% throughout.
Take `CCC(CC)CN1CC(N=[N+]=[N-])C(O)C(O)C1CO` [Compound 14, 2-azido-1,5-{(2-ethylbutyl)imino}-1,2,5-trideoxy-D-glucitol]: the inhibition at 100 µM in experiment [1] (setting [4]) is 67%.
Take `[N-]=[N+]=NC1CN(CCCC(F)(F)F)C(CO)C(O)C1O` [Compound 15, 2-azido-1,5-{(4,4,4-trifluorobutyl)imino}-1,2,5-trideoxy-D-glucitol]: in experiment [1] (setting [4]), the inhibition at 1000 µM worked out at 41%.
For the molecule `N[C@H]1CN[C@H](CO)[C@@H](O)[C@@H]1O` [Compound 20, 2-amino-1,2,5-trideoxy-1,5-imino-D-glucitol], the inhibition at 100 µM in experiment [1] (setting [4]) turned out to be 91%.
Consider `CCCCN1CC(N)C(O)C(O)C1CO` [Compound 21, 2-amino-1,5-(butylimino)-1,2,5-trideoxy-D-glucitol], for which the inhibition at 100 µM in experiment [1] (setting [5]) and in experiment [1] (setting [4]) was 66% in each case.
Take `CCC(CC)CN1CC(N)C(O)C(O)C1CO` [Compound 22, 2-amino-1,5-{(2-ethylbutyl)imino}-1,2,5-trideoxy-D-glucitol]: the “Visna % Plaque Redn (Conc), only a concentration bound printed” value in experiment [1] (Table 3, no % printed) was over 1 mm.
In the case of `NC1CN(CCCC(F)(F)F)C(CO)C(O)C1O` [Compound 23, 2-amino-1,5-{(4,4,4-trifluorobutyl)imino}-1,2,5-trideoxy-D-glucitol], in experiment [1] (setting [4]), the inhibition at 1000 µM turned out to be 9%.
Consider `CCCCN1CC(N(C)C)C(O)C(O)C1CO` [Compound 28, 1,5-(butylimino)-1,2,5-trideoxy-2-(dimethylamino)-D-glucitol], for which the inhibition at 100 µM in experiment [1] (setting [5]) came to 41%.
On the same count and under the same terms, with `CCCCN1CC(NC)C(O)C(O)C1CO` [Compound 29, 1,5-(butylimino)-1,2,5-trideoxy-2-(methylamino)-D-glucitol] the figure was 25%; with `CCCCN1CC(NC(=O)CCC)C(O)C(O)C1CO` [Compound 30, 1,5-(butylimino)-1,2,5-trideoxy-2-{(1-oxobutyl)amino}-D-glucitol], 20%.
The same measure, in the same setting: with `CCCCN1CC(NC(=O)CCC)C(OC(=O)CCC)C(OC(=O)CCC)C1COC(=O)CCC` [Compound 31, 1,5-(butylimino)-1,2,5-trideoxy-2-{(1-oxobutyl)amino}-D-glucitol, tributanoate] the figure was 29%.
On to `N[C@H]1[C@H](O)[C@@H](CO)NC[C@@H]1O` [Compound 37, 3-amino-1,3,5-trideoxy-1,5-imino-D-glucitol], for which the inhibition at 1000 µM in experiment [1] (setting [4]) stood at 30%.
Same read-out and setting: the figure for `CCCCN1CC(N)C(N)C(O)C1CO` [Compound 46, 2,3-diamino-1,5-(butylimino)-1,2,3,5-tetradeoxy-D-glucitol] is 3%.
In the case of `CN(C)CCN[C@@H]1[C@H](O)[C@@H](CO)NC[C@H]1O` [Compound 50, 3-[{2-(dimethylamino)ethyl}amino]-1,3,5-trideoxy-1,5-imino-D-altritol], in experiment [1] (setting [4]), the inhibition at 1000 µM was 38%. In addition, in experiment [2], the “inhibition of α-glucosidase” value came to 22%. Besides, the “inhibition of β-glucosidase” value in experiment [3] is listed as 22%.
